Results published in patent publication US7390873B2, “Antimicrobial cationic peptides” (University of British Columbia, priority 1995, dated 2008).
Values after ≈ are worked out from the molar mass of the structure shown. Like-named read-outs stand apart in the source and are kept apart here. Where a SMILES comes first, the peptide text is derived from it. Where no end group is shown, it is not given here. [ ]: non-standard residue; d: D form.

How the values were obtained:
E. coli UB1005 = assay type: cell-based; conditions: for MIC E. coli: UB1005, 24 h
Protocol: (§1) Any of the art-known methods for measuring antimicrobial activity of peptides can be used in characterizing the peptides of the invention. In these examples, conventional methods were used to determine the minimal inhibitory concentration (MIC) of a peptide in a liquid medium (Amsterdam. Antibiotics in Laboratory Medicine, Williams and Wilkins, Baltimore (1991) 72-78). Briefly, overnight cultures of the test organisms (described below) were diluted to produce an inoculum containing approximately 10^4 to 10^5 organisms. The inoculum size was confirmed by counting the number of organisms on plates that were inoculated at the same time as the liquid cultures.
(§2) The concentration of peptide was measured by assaying for free amino groups using a dinitrophenylation assay, with polymyxin B serving as a standard. Doubling dilutions of peptide were performed (32 μg/ml-0.25 μg/ml) in 100 μl volumes in a 96-well mictrotiter plate, and all wells were subsequently inoculated with the diluted culture of the test organism. After 24 hours of incubation at 37° C., the assay was read. The MIC value is the concentration of peptide at which the growth of the test organism was reduced by 50%. The number of cells in the culture inoculum was calculated from the plate count after incubating the plate for 24 hours at 37° C. The medium used for cell culture and dilution in this assay was Luria broth (LB). Each peptide was tested three times against each organism, and the MIC values presented below are the mean values of the three experiments.

[1] = tested on: Pseudomonas aeruginosa K799; assay type: cell-based; conditions: for MIC P. aeruginosa: K799, 24 h
Protocol: as §1, §2

[2] = tested on: Staphylococcus aureus RN4220; assay type: cell-based; conditions: for MIC S. aureus: RN4220, 24 h
Protocol: as §1, §2

[3] = tested on: Staphylococcus epidermidis C621; assay type: cell-based; conditions: for MIC S. epidermidis: C621, 24 h
Protocol: as §1, §2

Candida albicans C627 = assay type: cell-based; conditions: for MIC C. albicans: C627, 24 h
[4] = Mortality after injection of peptide in mice; assay type: in vivo; conditions: 200 μg peptide IP
Protocol: The ability of indolicidin and variants to protect against LPS-induced endotoxemia was assessed in vivo. Mice (8-10 weeks old) were injected intraperitoneally (IP) with 20 mg D-galactosamine (Dgal) to sensitive them to LPS according to the model of Galanos (Galanos, C., M. A., Freudenberg and W. Reutter, 1979, Galactosamine sensitization to the lethal effects of endotoxin. Proc. Natl. Acad. Sci. USA 76:5939), followed by 200 μg peptide in 100 μl. Immediately afterwards LPS (10 μg) in 100 μl was injected. The mice were observed 24 hours after injections and survivors noted. […] When Dgal and LPS were also injected, that 200 μg of indolicidin reduced mortality reduced at 24 hours from 100% in controls to 60%.

[5] = tested on: all of the organisms tested; assay: MIC assay, summary over the organisms tested; assay type: cell-based; conditions: range over organisms
Protocol: as §1
as §2, with “The medium used for cell culture and dilution in this assay was Luria broth (LB). Each peptide was tested three times against each organism, and the MIC values presented below are the mean values of the three experiments.” left out
MIC values also were determined for various derivatives of indolicidin, CP-11, and CP-13. […]

human red blood cells = assay: Lysis of red blood cells; assay type: cell-based
Protocol: Freshly collected human blood was mixed with heparin and centrifuged to remove the buffy coat. The resulting erythrocytes were washed three times in 0.85% saline and stored at 4° C. Serial dilutions of the peptides in saline were prepared in round bottomed microtitre plates using 100 μl volumes. Red blood cells were diluted with saline to 1/25 of the packed volume of cells and 50 μl of red blood cells were added to each well. Plates were incubated while rocking at 37° C., and the concentration of peptide required for red blood cell lysis of more than 80% of cells (i.e., visible lysis) was determined at 4 and 24 hours (Table 7).

[6] = Dansyl polymyxin B (DPX) displacement assay; assay type: binding, P. aeruginosa; conditions: concentration at which 50% of the maximal DPX was displaced from the LPS; read-out: I50 of DPX displacement
Protocol: Peptides that bind lipopolysaccharide are thought to potentially function as anti-endotoxins. The binding of various CP peptides to P. aeruginosa H103 lipopolysaccharide (LPS) was measured in a dansyl polymyxin B (DPX) displacement assay as described by Moore et al. (AAC, 26 (1986) 496-500). […] Purified LPS was saturated with DPX by titrating LPS with samples of DPX until maximum fluorescence was reached. Fluorescence was measured in a Perkin-Elmer 650-10S fluorescence spectrophotometer and displacement of DPX was measured as a decrease in fluorescence upon the addition of an antimicrobial peptide.
Each peptides I50 value, which is the concentration at which 50% of the maximal DPX was displaced from the LPS, is shown. Also shown is the Imax value, which represents the maximum displacement of […] expressed as a percentage, where 100% indicates displacement of all bound DPX.

| Compound | MIC E. coli (E. coli UB1005) [µg/mL] | MIC P. aeruginosa [1] [µg/mL] | MIC S. aureus [2] [µg/mL] | MIC S. epidermidis [3] [µg/mL] | MIC C. albicans (Candida albicans C627) [µg/mL] | other results |
| --- | --- | --- | --- | --- | --- | --- |
| CC[C@@H](C)[C@@H](N)C(=O)N[C@@H](CC(C)C)C(=O)N1CCC[C@H]1C(=O)N[C@@H](Cc1c[nH]c2ccccc12)C(=O)N[C@@H](CCCCN)C(=O)N[C@@H](Cc1c[nH]c2ccccc12)C(=O)N1CCC[C@H]1C(=O)N[C@@H](Cc1c[nH]c2ccccc12)C(=O)N[C@@H](Cc1c[nH]c2ccccc12)C(=O)N1CCC[C@H]1C(=O)N[C@@H](Cc1c[nH]c2ccccc12)C(=O)N[C@@H](CCCNC(=N)N)C(=O)N[C@@H](CCCNC(=N)N)C(=O)O [Indolicidin-D] | 8 (≈ 4.19 µM) | >32 | 4 (≈ 2.1 µM) | 2 (≈ 1.05 µM) | >32 | Mortality after injection of peptide [4]: did not cause mortality |
| CC[C@@H](C)[C@@H](N)C(=O)N[C@@H](CC(C)C)C(=O)N1CCC[C@H]1C(=O)N[C@@H](Cc1c[nH]c2ccccc12)C(=O)N[C@@H](CCCCN)C(=O)N[C@@H](Cc1c[nH]c2ccccc12)C(=O)N1CCC[C@H]1C(=O)N[C@@H](Cc1c[nH]c2ccccc12)C(=O)N[C@@H](Cc1c[nH]c2ccccc12)C(=O)N1CCC[C@H]1C(=O)N[C@@H](Cc1c[nH]c2ccccc12)C(=O)N[C@@H](CCCNC(=N)N)C(=O)N[C@@H](CCCNC(=N)N)C(=O)OC [Indolicidin-DC] | 4 (≈ 2.08 µM) | >32 | 8 (≈ 4.16 µM) | 2 (≈ 1.04 µM) | >32 |  |
| CC[C@H](C)[C@H](N)C(=O)N[C@@H](CC(C)C)C(=O)N[C@@H](CCCCN)C(=O)N[C@@H](CCCCN)C(=O)N[C@@H](Cc1c[nH]c2ccccc12)C(=O)N1CCC[C@H]1C(=O)N[C@@H](Cc1c[nH]c2ccccc12)C(=O)N[C@@H](Cc1c[nH]c2ccccc12)C(=O)N1CCC[C@H]1C(=O)N[C@@H](Cc1c[nH]c2ccccc12)C(=O)N[C@@H](CCCNC(=N)N)C(=O)N[C@@H](CCCNC(=N)N)C(=O)N[C@@H](CCCCN)C(=O)OC [CP-11C] (H-ILKKWPWWPWRRK-OMe) | 2 (≈ 1.06 µM) | 8 (≈ 4.22 µM) | 8 (≈ 4.22 µM) | 1 (≈ 0.528 µM) | 8 (≈ 4.22 µM) | MIC values for all of the organisms tested [5]: 1 to 8 µg/mL; Lowest concentration causing lysis, 4 hours (human red blood cells): >128 µg/mL; Lowest concentration causing lysis, 24 hours (human red blood cells): 64 µg/mL |
| ILKKWPWWPWRRK-NH2 [CP-11N] | 1 |  | >32 | 8 |  |  |
| ILPWKWPWYVRR [CP-IA] | >32 | >32 | >32 | >32 | >32 |  |
| CC[C@@H](C)[C@@H](N)C(=O)N[C@@H](CC(C)C)C(=O)N[C@@H](CCCCN)C(=O)N[C@@H](CCCCN)C(=O)N[C@@H](Cc1c[nH]c2ccccc12)C(=O)N1CCC[C@H]1C(=O)N[C@@H](Cc1c[nH]c2ccccc12)C(=O)N[C@@H](Cc1c[nH]c2ccccc12)C(=O)N1CCC[C@H]1C(=O)N[C@@H](Cc1c[nH]c2ccccc12)C(=O)N[C@@H](CCCNC(=N)N)C(=O)N[C@@H](CCCNC(=N)N)C(=O)N[C@@H](CCCCN)C(=O)OC [CP-11DC] (H-[dI]LKKWPWWPWRRK-OMe; N-terminus assumed) | 4 (≈ 2.11 µM) | 4 (≈ 2.11 µM) | 4 (≈ 2.11 µM) | 2 (≈ 1.06 µM) | 8 (≈ 4.22 µM) |  |
| CC[C@H](C)[C@H](N)C(=O)N[C@@H](CC(C)C)C(=O)N1CCC[C@H]1C(=O)N[C@@H](Cc1c[nH]c2ccccc12)C(=O)N[C@@H](CCCCN)C(=O)N[C@@H](Cc1c[nH]c2ccccc12)C(=O)N1CCC[C@H]1C(=O)N[C@@H](Cc1c[nH]c2ccccc12)C(=O)N[C@@H](Cc1c[nH]c2ccccc12)C(=O)N1CCC[C@H]1C(=O)N[C@@H](Cc1c[nH]c2ccccc12)C(=O)N[C@@H](CCCNC(=N)N)C(=O)N[C@@H](CCCNC(=N)N)C(=O)O [Indolicidin-R, reference compound] |  |  |  |  |  | MIC E.coli UB1005 (E. coli UB1005): 32 µg/mL (≈ 16.8 µM); MIC P. aeruginosa K799 [1]: >32 µg/mL; MIC S. aureus RN4220 [2]: 16 µg/mL (≈ 8.39 µM); MIC S. epidermidis C621 [3]: 16 µg/mL (≈ 8.39 µM); MIC C. albicans C627 (Candida albicans C627): >32 µg/mL |
| FFKKFPFFPFRRK [CP-24] | 8 | 32 | 8 |  |  |  |
| ILKKWPWWPWKWKK [CP-13] | 8 | >32 | >32 | 4 | >32 | Lowest concentration causing lysis, 4 hours (human red blood cells): >128 µg/mL; Lowest concentration causing lysis, 24 hours (human red blood cells): 128 µg/mL |
| CC[C@H](C)[C@H](N)C(=O)N[C@@H](CC(C)C)C(=O)N1CCC[C@H]1C(=O)N[C@@H](Cc1c[nH]c2ccccc12)C(=O)N[C@@H](CCCCN)C(=O)N[C@@H](Cc1c[nH]c2ccccc12)C(=O)N1CCC[C@H]1C(=O)N[C@@H](Cc1c[nH]c2ccccc12)C(=O)N[C@@H](Cc1c[nH]c2ccccc12)C(=O)N1CCC[C@H]1C(=O)N[C@@H](Cc1c[nH]c2ccccc12)C(=O)N[C@@H](CCCNC(=N)N)C(=O)N[C@@H](CCCNC(=N)N)C(=O)OC [Indolicidin-C] | 4 (≈ 2.08 µM) | >32 | 4 (≈ 2.08 µM) | 1 (≈ 0.52 µM) | >32 | Lowest concentration causing lysis, 4 hours (human red blood cells; lysis of more than 80% of cells (visible lysis), 37° C., 4 hours): 32 µg/mL; Lowest concentration causing lysis, 24 hours (human red blood cells; lysis of more than 80% of cells (visible lysis), 37° C., 24 hours): 32 µg/mL |
| [Mg+2] [Mg^2+ ions, Mg^2+] |  |  |  |  |  | IC50 [6]: ~620 µM |
| ILPWKKWPWWRWRR [CP-3R] |  |  |  |  |  | MIC E.coli UB1005 (E. coli UB1005): 8 µg/mL; MIC P. aeruginosa K799 [1]: 8 µg/mL; MIC S. aureus RN4220 [2]: 8 µg/mL; MIC S. epidermidis C621 [3]: 4 µg/mL; MIC C. albicans C627 (Candida albicans C627): > 32 µg/mL; Partial killing observed in dilutions down to (Candida albicans C627; purified recombinant peptide, C. albicans C627): 8 µg/mL |
| CC[C@@H](C)[C@@H](N)C(=O)N[C@@H](CC(C)C)C(=O)N[C@@H](CCCCN)C(=O)N[C@@H](CCCCN)C(=O)N[C@@H](Cc1c[nH]c2ccccc12)C(=O)N1CCC[C@H]1C(=O)N[C@@H](Cc1c[nH]c2ccccc12)C(=O)N[C@@H](Cc1c[nH]c2ccccc12)C(=O)N1CCC[C@H]1C(=O)N[C@@H](Cc1c[nH]c2ccccc12)C(=O)N[C@@H](CCCNC(=N)N)C(=O)N[C@@H](CCCNC(=N)N)C(=O)N[C@@H](CCCCN)C(=O)O [CP-11D] (H-[dI]LKKWPWWPWRRK-OH) | 4 (≈ 2.13 µM) | 4 (≈ 2.13 µM) | 4 (≈ 2.13 µM) | 2 (≈ 1.06 µM) | 8 (≈ 4.25 µM) | Mortality after injection of peptide [4]: did not cause mortality |
